According to patent publication US10301284B2, “Therapeutic inhibitory compounds” (LifeSci Pharmaceuticals, Inc., priority 2016, dated 2019):
Like-named read-outs stand apart in the source and are kept apart here.

Columns and labels:
human Plasma Kallikrein [1] = target: T1, human Plasma Kallikrein (Homo sapiens (Human), UniProt P03952); assay: In vitro enzyme inhibition of human plasma kallikrein (Pro-Phe-Arg-AMC cleavage); type: biochemical; conditions: human plasma kallikrein, PFR-AMC substrate, 37° C.; read-out: hPK IC50
In short: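 Human plasma kallikrein preincubated 5 min at 37 °C with compound in 50 mM Tris-HCl pH 7.5, 150 mM NaCl, 0.01% Triton X-100. Reaction started with Pro-Phe-Arg-AMC, fluorescence read every 43 s for 1 h at 37 °C. IC50 from highest mean velocity over 20 reads (~15 min).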

[2] = Pharmacokinetic evaluation, oral exposure in rats; type: in vivo; conditions: rat; male Sprague-Dawley rats, single oral dose 10 mg/kg via oral gavage, plasma; read-out: AUC
Procedure: Pharmacokinetic studies of select compounds were performed to assess the pharmacokinetic properties. Male Sprague-Dawley rats were administered a single oral dose of the test compound at 10 mg/kg (dose concentration: 2 mg/mL, dose volume: 5 ml/kg) via oral gavage. Blood samples were collected via jugular vein at pre-dose, post-dose 5 min, 15 min, 30 min, 1 h, 2 h, 4 h, 6 h, 8 h, 10 h and 24 h, and centrifuged (8000 rpm for 6 minutes at 2-8° C.). The resulting plasma fractions were analyzed by LC/MS/MS to determine the concentration of the test compound.

human Plasma Kallikrein [3] = target: T1, human Plasma Kallikrein; assay: Human whole blood kallikrein inhibition (ellagic acid-activated human plasma, Z-FR-2-AMC substrate); type: biochemical
Procedure: The ability of the compounds disclosed herein to inhibit human plasma kallikrein activity was quantified according to the procedures below.
All dilutions were prepared in an assay buffer comprising 50 mM Tris-HCl pH 7.2, 150 mM NaCl, and 0.01% Triton X-100.
Human plasma was thawed on ice and centrifuged for 15 min at 4° C. to remove platelets. A 1 mM stock solution of ellagic acid was diluted to 8 μM and mixed with human plasma, after removing platelets, at a ratio of 1:0.8. The mixture of human plasma and ellagic acid was further diluted 32-fold in the assay buffer, to yield the final mixture for use in the inhibition assay.
A 22.5 μL volume of the final mixture of human plasma and ellagic acid was added to a 96-well microwell plate and the plate was incubated for 15 min at 37° C.
The test compound solution was prepared to provide final concentrations of 20 μM, 5 μM, 1.25 μM, 312.5 nM, 78.125 nM, 19.531 nM, 4.883 nM, 1.221 nM, 0.305 nM, and 0.076 nM. Each test compound concentration was tested in duplicates.
In addition to the inhibitor control and test wells, the 96 well assay plate included positive control wells which contain the mixture of human plasma and ellagic acid without test compounds, and background wells which contain neither the mixture of human plasma and ellagic acid nor the test compounds. The total volume of liquid in positive control and background wells was brought up to 35 μL using the assay buffer.
The assay plate containing test compounds mixed with human plasma and ellagic acid and appropriate controls was incubated at 37° C. for 5 min. A 10 mM stock solution of substrate Z-FR-2-AMC was diluted to 133.2 μM in the assay buffer, and 15 μL of the diluted substrate was added to each well, to yield a final substrate concentration of 40 μM in each well. The reagents were mixed by shaking the plate gently for 30 sec.
The enzyme reaction was quantified by immediate kinetic reading of the assay plate using excitation/emission wavelengths of 330 nm/440 nm respectively. Fluorescence intensity was recorded for 60 min, using a time interval of 43 sec.
The inhibition activity of the test compounds were evaluated using the IC50 values, calculated according to the dose-response curve of the test compounds, fitted using the “log(inhibitor)−response(variable slope)” equation in GraphPadPrism software (GraphPad Software, Inc.).
The percentage inhibition (EC50) was calculated using the following equation:
[formula] where, Mean(BG) is the average value of the fluorescence intensity of the background wells and Mean(PC) is the average value of the fluorescence intensity of the positive control wells.

[4] = human plasma activated with ellagic acid, Z-FR-2-AMC 40 μM, 37° C., read-out: HWB EC50

T1 sequence (P03952 391-638 limits assumed): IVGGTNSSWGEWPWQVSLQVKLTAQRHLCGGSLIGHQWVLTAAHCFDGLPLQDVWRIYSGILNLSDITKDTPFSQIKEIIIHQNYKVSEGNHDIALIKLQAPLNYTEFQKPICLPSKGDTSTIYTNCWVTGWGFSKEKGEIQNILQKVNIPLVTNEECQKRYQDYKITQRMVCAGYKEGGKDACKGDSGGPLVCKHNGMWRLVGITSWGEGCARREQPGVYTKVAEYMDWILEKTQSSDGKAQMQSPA
T1 sequence (P03952 20-390 partner limits assumed): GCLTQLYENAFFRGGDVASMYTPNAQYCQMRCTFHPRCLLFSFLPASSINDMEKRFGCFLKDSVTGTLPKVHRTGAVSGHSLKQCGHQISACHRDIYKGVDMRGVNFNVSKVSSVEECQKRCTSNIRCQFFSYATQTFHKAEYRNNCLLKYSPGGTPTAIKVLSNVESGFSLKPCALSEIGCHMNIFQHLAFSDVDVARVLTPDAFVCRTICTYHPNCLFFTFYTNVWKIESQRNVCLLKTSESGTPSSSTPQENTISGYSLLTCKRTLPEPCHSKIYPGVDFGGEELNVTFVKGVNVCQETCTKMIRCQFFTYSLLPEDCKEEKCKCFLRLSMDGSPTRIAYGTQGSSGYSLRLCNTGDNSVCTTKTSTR

SMILES	IC50 (human Plasma Kallikrein [1]) [nM]	AUC [2] [ng·h/mL]	EC50 (human Plasma Kallikrein [3]; [4]) [nM]	EC50 (human Plasma Kallikrein [3]) [nM]
N#Cc1nn(Cc2cc(F)c3ncc(Cl)cc3c2)cc1C(=O)NCc1ccc2c(N)nccc2c1 [Example 54, N-((1-aminoisoquinolin-6-yl)methyl)-1-((3-chloro-8-fluoroquinolin-6-yl)methyl)-3-cyano-1H-pyrazole-4-carboxamide]	< 100	< 100	< 100	–
Cc1cc(N)nc(C)c1CNC(=O)c1cn(Cc2cc(C(C)(C)O)c3ncc(Cl)cc3c2)nc1C#N [Example 58, N-((6-amino-2,4-dimethylpyridin-3-yl)methyl)-1-((3-chloro-8-(2-hydroxypropan-2-yl)quinolin-6-yl)methyl)-3-cyano-1H-pyrazole-4-carboxamide]	< 100	< 100	< 100	–
CC(C)(O)c1cc(Cn2cc(C(=O)NCc3ccc4c(N)nccc4c3)c(C#N)n2)cc2cc(Cl)cnc12 [Example 59, N-((1-aminoisoquinolin-6-yl)methyl)-1-((3-chloro-8-(2-hydroxypropan-2-yl)quinolin-6-yl)methyl)-3-cyano-1H-pyrazole-4-carboxamide]	< 100	< 100	< 100	–
Cc1cnc2c(S(C)(=O)=O)cc(Cn3cc(C(=O)NCc4c(C)cc(N)nc4C)c(C#N)n3)cc2c1 [Example 61, N-((6-amino-2,4-dimethylpyridin-3-yl)methyl)-3-cyano-1-((3-methyl-8-(methylsulfonyl)quinolin-6-yl)methyl)-1H-pyrazole-4-carboxamide]	< 100	< 100	< 100	–
Cc1cnc2c(C#N)cc(Cn3cc(C(=O)NCc4c(C)cc(N)nc4C)c(C#N)n3)cc2c1 [Example 62, N-((6-amino-2,4-dimethylpyridin-3-yl)methyl)-3-cyano-1-((8-cyano-3-methylquinolin-6-yl)methyl)-1H-pyrazole-4-carboxamide]	< 100	< 100	< 100	–
Cc1cc(N)nc(C)c1CNC(=O)c1cn(Cc2ccc3ncc(C4CC4)cc3c2)nc1C#N [Example 65, N-((6-amino-2,4-dimethylpyridin-3-yl)methyl)-3-cyano-1-((3-cyclopropylquinolin-6-yl)methyl)-1H-pyrazole-4-carboxamide]	< 100	100 to 1000	< 100	–
Cc1nc(N)ccc1CNC(=O)c1cn(Cc2ccc3ncc(C4CC4)cc3c2)nc1C#N [Example 66, N-((6-amino-2-methylpyridin-3-yl)methyl)-3-cyano-1-((3-cyclopropylquinolin-6-yl)methyl)-1H-pyrazole-4-carboxamide]	< 100	100 to 1000	< 100	–
Cc1cnc2c(C(C)(C)O)cc(Cn3ncc(C(=O)NCc4c(C)cc(N)nc4C)c3C#N)cc2c1 [Example 67, N-((6-amino-2,4-dimethylpyridin-3-yl)methyl)-5-cyano-1-((8-(2-hydroxypropan-2-yl)-3-methylquinolin-6-yl)methyl)-1H-pyrazole-4-carboxamide]	1000 to 10000	< 100	< 100	–
Cc1cc(N)nc(C)c1CNC(=O)c1cn(Cc2cc(C#N)c3ncc(Cl)cc3c2)nc1C#N [Example 69, N-((6-amino-2,4-dimethylpyridin-3-yl)methyl)-1-((3-chloro-8-cyanoquinolin-6-yl)methyl)-3-cyano-1H-pyrazole-4-carboxamide]	< 100	< 100	< 100	–
Cc1cc(N)nc(C)c1CNC(=O)c1cn(Cc2ccc3ncc(C(F)(F)F)cc3c2)nc1C#N [Example 73, N-((6-amino-2,4-dimethylpyridin-3-yl)methyl)-3-cyano-1-((3-(trifluoromethyl)quinolin-6-yl)methyl)-1H-pyrazole-4-carboxamide]	< 100	100 to 1000	< 100	–
Cc1nc(N)ccc1CNC(=O)c1cn(Cc2ccc3ncc(C(F)(F)F)cc3c2)nc1C#N [Example 74, N-((6-amino-2-methylpyridin-3-yl)methyl)-3-cyano-1-((3-(trifluoromethyl)quinolin-6-yl)methyl)-1H-pyrazole-4-carboxamide]	< 100	1000 to 10000	< 100	–
Cc1cc(N)nc(C)c1CNC(=O)c1nnc(Cc2cc(F)c3ncc(Cl)cc3c2)o1 [Example 75, N-((6-amino-2,4-dimethylpyridin-3-yl)methyl)-5-((3-chloro-8-fluoroquinolin-6-yl)methyl)-1,3,4-oxadiazole-2-carboxamide]	< 100	1000 to 10000	< 100	–
Cc1cnc2c(C(N)=O)cc(Cn3cc(C(=O)NCc4c(C)cc(N)nc4C)c(C#N)n3)cc2c1 [Example 78, 6-((4-(((6-amino-2,4-dimethylpyridin-3-yl)methyl)carbamoyl)-3-cyano-1H-pyrazol-1-yl)methyl)-3-methylquinoline-8-carboxamide]	< 100	< 100	< 100	–
Cc1cnc2ccc(Cn3cc(C(=O)NCc4c(C)cc(N)nc4C)c(C#N)n3)cc2c1 [Example 81, N-((6-amino-2,4-dimethylpyridin-3-yl)methyl)-3-cyano-1-((3-methylquinolin-6-yl)methyl)-1H-pyrazole-4-carboxamide]	< 100	100 to 1000	< 100	–
Cc1cnc2ccc(Cn3cc(C(=O)NCc4ccc(N)nc4C)c(C#N)n3)cc2c1 [Example 82, N-((6-amino-2-methylpyridin-3-yl)methyl)-3-cyano-1-((3-methylquinolin-6-yl)methyl)-1H-pyrazole-4-carboxamide]	< 100	100 to 1000	< 100	–
Cc1cc(N)nc(C)c1CNC(=O)c1nn(Cc2ccc3ncc(Cl)cc3c2)nc1C#N [Example 95, N-((6-amino-2,4-dimethylpyridin-3-yl)methyl)-2-((3-chloroquinolin-6-yl)methyl)-5-cyano-2H-1,2,3-triazole-4-carboxamide]	< 100	100 to 1000	< 100	–
Cc1cc(N)nc(C)c1CNC(=O)c1nnc(Cc2ccc3ncc(Cl)cc3c2)[nH]1 [Example 96, N-((6-amino-2,4-dimethylpyridin-3-yl)methyl)-5-((3-chloroquinolin-6-yl)methyl)-4H-1,2,4-triazole-3-carboxamide]	< 100	> 10000	< 100	–
Cc1cc(N)nc(C)c1CNC(=O)c1nnc(Cc2ccc3ncc(Cl)cc3c2)n1C [Example 98, N-((6-amino-2,4-dimethylpyridin-3-yl)methyl)-5-((3-chloroquinolin-6-yl)methyl)-4-methyl-4H-1,2,4-triazole-3-carboxamide]	< 100	1000 to 10000	< 100	–
COc1cc2c(C(=O)NCc3c(C)cc(N)nc3C)nn(Cc3ccc4ncc(Cl)cc4c3)c2cn1 [Example 122, N-((6-amino-2,4-dimethylpyridin-3-yl)methyl)-1-((3-chloroquinolin-6-yl)methyl)-5-methoxy-1H-pyrazolo[3,4-c]pyridine-3-carboxamide]	< 100	100 to 1000	–	< 100
Cc1cc(N)nc(C)c1CNC(=O)c1cn(Cc2ccc3ncc(Cl)cc3c2)c2cncc(C#N)c12 [Example 123, N-((6-amino-2,4-dimethylpyridin-3-yl)methyl)-1-((3-chloroquinolin-6-yl)methyl)-4-cyano-1H-pyrrolo[2,3-c]pyridine-3-carboxamide]	< 100	< 100	–	< 100
